Data: patent publication US20240425523A1, “Compounds for the Degradation of EGFR Kinase” (Beigene Switzerland GMBH, priority 2023, published 2024)

Tests used:
Type in all cases: cell-based
[1] = biological target: T1, EGFR L858R (BaF3-L858R cells) (Homo sapiens, UniProt P00533, L858R); test: Cell degradation of EGFR, HTRF assay, BaF3-L858R cells; settings: 16 h treatment; for DC50: EGFR degradation; for Dmax: maximum percentage of degradation
T1 construct: host or cells: BaF3
How it was run: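 EGFR L858R levels measured by HTRF antibody pair in lysed BaF3-L858R cells after 16 h compound exposure (8-point 5-fold series from 10 uM final, 37° C). Degradation is relative to DMSO-only cells; DC50 fitted with Hill equation, Dmax taken as the largest percent loss.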

[2] = biological target: T2, EGFR-L858R/C797S (H1975-clone #8 cells) (Homo sapiens, UniProt P00533, C797S/L858R); test: Cell degradation of EGFR, HTRF assay, H1975-clone#8 (L858R/C797S) cells; settings: 16 h treatment; for DC50: EGFR degradation; for Dmax: maximum percentage of degradation
T2 construct: expressed in transfected cells; host or cells: H1975 (endogenous EGFR knocked out, clone #8)

[3] = biological target: T3, p-EGFR L858R (BaF3-L858R cells) (Homo sapiens, UniProt P00533, L858R); test: Cell p-EGFR inhibition assay, HTRF, BaF3-L858R cells; settings: 16 h treatment; for Imax (%): maximum percentage of pEGFR inhibition; for IC50: pEGFR inhibition
T3 construct: host or cells: BaF3
How it was run: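 BaF3-L858R cells treated 16 h at 37 °C, 5% CO2 with compound from 10 uM top, 5-fold dilutions, 8 doses, in 0.1% DMSO medium. Lysates read overnight by HTRF p-EGFR antibodies; IC50 fitted to four-parameter curve against DMSO high control.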

[4] = biological target: p-EGFR Del19/C797S (H1975-clone #23 cells) (Homo sapiens, UniProt P00533); test: Cell p-EGFR inhibition assay, HTRF, H1975-clone#23 (DEL19/C797S) cells; settings: 16 h treatment; for Imax (%): maximum percentage of pEGFR inhibition; for IC50: pEGFR inhibition
How it was run: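 Phospho-EGFR read by overnight HTRF on lysates, normalized to DMSO-treated high control; IC50, Hill slope and Imax fitted. Compounds were applied for 16 h (10 uM top, 5-fold steps, 8 doses) to an H1975 single clone carrying only exogenous Del19/C797S EGFR after sgRNA knockout of endogenous copies.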

SMILES | DC50 [1] | Dmax [1] | DC50 [2] | Dmax [2] | Imax (%) [3] | IC50 [3] | Imax (%) [4] | IC50 [4]
Cc1cc2cc(n1)-c1cnn(C)c1OC[C@H]1CCC(C1)CN1/C(=N/C2=O)Nc2ccc(N3CC4(CCN(C5CN(c6cc(F)c([C@H]7CCC(=O)NC7=O)c(F)c6)C5)CC4)C3)cc21 [Example 126, (R)-3-(4-(3-(2-((7^1R,7^3S,E)-1^1,2^6-dimethyl-3-oxo-5^2,5^3-dihydro-1^1H,5^1H-9-oxa-4-aza-5(2,1)-benzo[d]imidazola-2(2,4)-pyridina-1(4,5)-pyrazola-7(1,3)-cyclopentanacyclononaphane-5^6-yl)-2,7-diazaspiro[3.5]nonan-7-yl)azetidin-1-yl)-2,6-difluorophenyl)piperidine-2,6-dione] | 2.04 nM | 83.3% | 1.49 nM | 73.7% | 99.16% | 13.3 nM | 102.92% | 1.44 nM
COC[C@@H]1CN(c2ccc3c(c2)N2CC4CC[C@H](COc5c(c(C)nn5C)-c5cc(cc(C)n5)C(=O)/N=C/2N3)C4)CCN1CC1CCN(c2cc(F)c([C@H]3CCC(=O)NC3=O)c(F)c2)CC1 [Example 127, (R)-3-(2,6-difluoro-4-(4-(((S)-2-(methoxymethyl)-4-((7^1R,7^3S,E)-1^1,1^3,2^6-trimethyl-3-oxo-5^2,5^3-dihydro-1^1H,5^1H-9-oxa-4-aza-5(2,1)-benzo[d]imidazola-2(2,4)-pyridina-1(4,5)-pyrazola-7(1,3)-cyclopentanacyclononaphane-5^6-yl)piperazin-1-yl)methyl)piperidin-1-yl)phenyl)piperidine-2,6-dione] | 9.26 nM | 88.8% | 6.07 nM | 81.9% | 101.7% | 4.89 nM | 100.85% | 4.06 nM
Cc1cc2cc(n1)-c1cnn(C)c1OC[C@H]1CCC(C1)CN1/C(=N/C2=O)Nc2ccc(N3CCC(CN4CCC(Nc5cc(F)c([C@H]6CCC(=O)NC6=O)c(F)c5)CC4)CC3)cc21 [Example 131, (R)-3-(4-((1-((1-((7^1R,7^3S,E)-1^1,2^6-dimethyl-3-oxo-5^2,5^3-dihydro-1^1H,5^1H-9-oxa-4-aza-5(2,1)-benzo[d]imidazola-2(2,4)-pyridina-1(4,5)-pyrazola-7(1,3)-cyclopentanacyclononaphane-5^6-yl)piperidin-4-yl)methyl)piperidin-4-yl)amino)-2,6-difluorophenyl)piperidine-2,6-dione] | 4.84 nM | 69.1% | 0.867 nM | 72% | 102.8% | 6.4 nM | 103.08% | 0.796 nM
Cc1cc2cc(n1)-c1cnn(C)c1OC[C@H]1CCC(C1)CN1/C(=N/C2=O)Nc2ccc(N3CCC(CN4CC(Nc5cc(F)c([C@H]6CCC(=O)NC6=O)c(F)c5)C4)CC3)cc21 [Example 132, (R)-3-(4-((1-((1-((7^1R,7^3S,E)-1^1,2^6-dimethyl-3-oxo-5^2,5^3-dihydro-1^1H,5^1H-9-oxa-4-aza-5(2,1)-benzo[d]imidazola-2(2,4)-pyridina-1(4,5)-pyrazola-7(1,3)-cyclopentanacyclononaphane-5^6-yl)piperidin-4-yl)methyl)azetidin-3-yl)amino)-2,6-difluorophenyl)piperidine-2,6-dione] | 3.22 nM | 81% | 2.05 nM | 66% | 97.32% | 62.7 nM | 100.62% | 0.63 nM
COC[C@@H]1CN(c2ccc3c(c2)N2CC4CC[C@H](COc5c(c(C)nn5C)-c5cc(cc(C)n5)C(=O)/N=C/2N3)C4)CCN1C1CCN(c2c(F)cc(NC3CCC(=O)NC3=O)cc2F)CC1 (stereo partly drawn) [Example 133, 3-((3,5-difluoro-4-(4-((S)-2-(methoxymethyl)-4-((7R,7^3S,E)-1^1,1^3,2^6-trimethyl-3-oxo-5^2,5^3-dihydro-1^1H,5^1H-9-oxa-4-aza-5(2,1)-benzo[d]imidazola-2(2,4)-pyridina-1(4,5)-pyrazola-7(1,3)-cyclopentanacyclononaphane-5^6-yl)piperazin-1-yl)piperidin-1-yl)phenyl)amino)piperidine-2,6-dione] | 2.36 nM | 85.7% | 2.94 nM | 86.5% | 96.88% | 2.88 nM | 99.55% | 1.45 nM
Cc1cc2cc(n1)-c1c(C)nn(C)c1OC[C@H]1CCC(C1)CN1/C(=N/C2=O)Nc2ccc(N3CCN(CC4CCN(c5cc(F)c([C@H]6CCC(=O)NC6=O)c(F)c5)CC4)[C@H](C)C3)cc21 [Example 134, (R)-3-(2,6-difluoro-4-(4-(((R)-2-methyl-4-((7^1R,7^3S,E)-1^1,1^3,2^6-trimethyl-3-oxo-5^2,5^3-dihydro-1^1H,5^1H-9-oxa-4-aza-5(2,1)-benzo[d]imidazola-2(2,4)-pyridina-1(4,5)-pyrazola-7(1,3)-cyclopentanacyclononaphane-5^6-yl)piperazin-1-yl)methyl)piperidin-1-yl)phenyl)piperidine-2,6-dione] | 1.89 nM | 85.9% | 4.97 nM | 79.9% | 98.27% | 2.49 nM | 92.81% | 1.76 nM
Cc1cc2cc(n1)-c1c(C)nn(C)c1OC[C@H]1CCC(C1)CN1/C(=N/C2=O)Nc2ccc(N3CCN(C4CCN(c5cc(F)c([C@H]6CCC(=O)NC6=O)c(F)c5)CC4)[C@@H](C)C3)cc21 [Example 135, (R)-3-(2,6-difluoro-4-(4-((S)-2-methyl-4-((7^1R,7^3S,E)-1^1,1^3,2^6-trimethyl-3-oxo-5^2,5^3-dihydro-1^1H,5^1H-9-oxa-4-aza-5(2,1)-benzo[d]imidazola-2(2,4)-pyridina-1(4,5)-pyrazola-7(1,3)-cyclopentanacyclononaphane-5^6-yl)piperazin-1-yl)piperidin-1-yl)phenyl)piperidine-2,6-dione] | 3.08 nM | 89.1% | 1.91 nM | 86.9% | 104.33% | 2.32 nM | 104.78% | 1.4 nM
Cc1cc2cc(n1)-c1c(C)nn(C)c1OC[C@H]1CCC(C1)CN1/C(=N/C2=O)Nc2ccc(N3CCC(N(C)C4CCN(c5cc(F)c([C@H]6CCC(=O)NC6=O)c(F)c5)CC4)CC3)cc21 [Example 136, (R)-3-(2,6-difluoro-4-(4-(methyl(1-((7^1R,7^3S,E)-1^1,1^3,2^6-trimethyl-3-oxo-5^2,5^3-dihydro-1^1H,5^1H-9-oxa-4-aza-5(2,1)-benzo[d]imidazola-2(2,4)-pyridina-1(4,5)-pyrazola-7(1,3)-cyclopentanacyclononaphane-5^6-yl)piperidin-4-yl)amino)piperidin-1-yl)phenyl)piperidine-2,6-dione] | 3.52 nM | 81.1% | 0.152 nM | 76.1% | 104.73% | 8.91 nM | 103.49% | 1.44 nM
